The test system of series [1] is human mesenchymal stem cells (hMSCs). The series is described as follows: MTS assay on hMSCs. The series is classed as cell-based. The settings on record: nM concentration. The procedure: complex. Supplementary Figure 5. […]
here as reference for BRD4 inhibitory activity. […] NA=
1 hour incubation with liver microsomes. C.
ULK3 rendered in Pymol (Schrodinger Inc.) at a 2.8 Å resolution. D. Table summarizing hULK3-MA9060 crystallographic data collection and refinement statistics. E. MA9060 is a dual inhibitor, able to decrease both ULK3 and MYC protein levels in MYC-dependent MM1.S MM cells. JQ1 is here included as the control for […]
mesenchymal stem cells (hMSCs) at 24 (G) and 48 (H) hours.
(In general: Tetrazolium assays rely on reduction of a dye to a coloured formazan, in cell work by metabolically active cells.)

The target of a further series is T1, ULK1 (Homo sapiens, UniProt O75385).
T1 construct: purchased Reaction Biology Corporation
T1 sequence (O75385 1-1050): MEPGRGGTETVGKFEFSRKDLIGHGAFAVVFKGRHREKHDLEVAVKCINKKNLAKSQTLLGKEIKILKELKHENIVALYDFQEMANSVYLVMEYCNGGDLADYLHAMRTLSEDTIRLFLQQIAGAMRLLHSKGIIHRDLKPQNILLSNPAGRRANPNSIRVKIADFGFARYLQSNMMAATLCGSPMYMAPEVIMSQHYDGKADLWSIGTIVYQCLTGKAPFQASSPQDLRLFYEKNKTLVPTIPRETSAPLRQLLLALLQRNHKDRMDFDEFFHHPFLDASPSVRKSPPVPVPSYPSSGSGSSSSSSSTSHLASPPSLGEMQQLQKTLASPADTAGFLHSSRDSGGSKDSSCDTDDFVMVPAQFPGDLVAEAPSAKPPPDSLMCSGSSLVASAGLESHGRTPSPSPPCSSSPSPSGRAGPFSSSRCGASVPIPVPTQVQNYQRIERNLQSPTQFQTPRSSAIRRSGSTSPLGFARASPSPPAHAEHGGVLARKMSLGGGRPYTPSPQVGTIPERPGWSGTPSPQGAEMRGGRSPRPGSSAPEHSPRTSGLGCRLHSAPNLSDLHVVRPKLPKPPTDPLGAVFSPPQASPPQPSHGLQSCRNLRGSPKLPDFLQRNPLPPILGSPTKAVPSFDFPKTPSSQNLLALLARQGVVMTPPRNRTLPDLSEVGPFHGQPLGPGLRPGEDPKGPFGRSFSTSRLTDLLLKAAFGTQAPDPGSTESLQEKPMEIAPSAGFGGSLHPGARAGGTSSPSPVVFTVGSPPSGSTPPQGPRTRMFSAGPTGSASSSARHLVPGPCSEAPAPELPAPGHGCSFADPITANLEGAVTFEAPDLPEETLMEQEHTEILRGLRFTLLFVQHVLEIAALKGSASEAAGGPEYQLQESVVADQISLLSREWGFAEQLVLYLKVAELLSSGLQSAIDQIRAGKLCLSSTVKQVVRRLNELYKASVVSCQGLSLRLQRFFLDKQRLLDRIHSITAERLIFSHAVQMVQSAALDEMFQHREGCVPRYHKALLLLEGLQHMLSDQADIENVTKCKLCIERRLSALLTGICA
As to the kind of experiment: Kinase profiling assay (Reaction Biology), 10-dose IC50, 10 μM ATP. The series is classed as biochemical. Here is the method:
(§1) 310 and refinement were performed with COOT [14] and Phenix.Refine to obtain a clear electron
(§2) 311 density map (1Fo-Fc) for compound MA9-060, which was built into the structure near the end of
(§3) 312 iterative cycles of model building and refinement. Crystal parameters, data collection statistics and
(§4) 313 refinement statistics are summarized in Supplementary Fig. 4D and deposited in the protein
(§5) 314 databank with PDB code 8V1M.
(§6) 317 The compounds under investigation were tested by Reaction Biology Corporation against four
(§7) 318 specific kinases in this study (JAK2, ULK1, ULK2, ULK3). Each compound was provided as a
(§8) 319 10 mM stock solution. To facilitate dissolution, the compounds were subjected to gentle heating.
(§9) 320 Subsequent testing involved the evaluation of the compounds using a 10-dose IC50 mode,
(§10) Additionally, the control compound,
(§11) Throughout these experiments, reactions were conducted using a standardized concentration
(§12) 325 The data collected during these assays encompass raw data, % enzyme activity (relative to DMSO
(§13) 327 activities at the highest concentration of compounds were less than 65%. The IC50 summary,
(§14) 328 detailing the inhibitory concentrations of the compounds against the respective kinases, is
(§15) 331 Bromodomain profiling assay
(§16) 333 evaluated against Bromodomain 1 by Reaction Biology Corporation.
(§17) 334 The compounds were subjected to testing using a 10-dose IC50 singlet approach, involving a 3-
(§18) 335 fold serial dilution starting at 10 μM, specifically against BRD4-1. Additionally, as a benchmark,
(§19) 337 dilution starting at 10 μM.
(§20) 338 For ligand and detection purposes, the H4/4Ac ligand, representing the Histone H4 peptide (1-21)
(§21) 339 with acetylation at lysine residues K5, K8, K12, and K16, and tagged with Biotin, was utilized.

Another series concerns the target T2, ULK2 (Homo sapiens, UniProt Q8IYT8).
T2 construct: purchased Reaction Biology Corporation
T2 sequence (Q8IYT8 1-1036): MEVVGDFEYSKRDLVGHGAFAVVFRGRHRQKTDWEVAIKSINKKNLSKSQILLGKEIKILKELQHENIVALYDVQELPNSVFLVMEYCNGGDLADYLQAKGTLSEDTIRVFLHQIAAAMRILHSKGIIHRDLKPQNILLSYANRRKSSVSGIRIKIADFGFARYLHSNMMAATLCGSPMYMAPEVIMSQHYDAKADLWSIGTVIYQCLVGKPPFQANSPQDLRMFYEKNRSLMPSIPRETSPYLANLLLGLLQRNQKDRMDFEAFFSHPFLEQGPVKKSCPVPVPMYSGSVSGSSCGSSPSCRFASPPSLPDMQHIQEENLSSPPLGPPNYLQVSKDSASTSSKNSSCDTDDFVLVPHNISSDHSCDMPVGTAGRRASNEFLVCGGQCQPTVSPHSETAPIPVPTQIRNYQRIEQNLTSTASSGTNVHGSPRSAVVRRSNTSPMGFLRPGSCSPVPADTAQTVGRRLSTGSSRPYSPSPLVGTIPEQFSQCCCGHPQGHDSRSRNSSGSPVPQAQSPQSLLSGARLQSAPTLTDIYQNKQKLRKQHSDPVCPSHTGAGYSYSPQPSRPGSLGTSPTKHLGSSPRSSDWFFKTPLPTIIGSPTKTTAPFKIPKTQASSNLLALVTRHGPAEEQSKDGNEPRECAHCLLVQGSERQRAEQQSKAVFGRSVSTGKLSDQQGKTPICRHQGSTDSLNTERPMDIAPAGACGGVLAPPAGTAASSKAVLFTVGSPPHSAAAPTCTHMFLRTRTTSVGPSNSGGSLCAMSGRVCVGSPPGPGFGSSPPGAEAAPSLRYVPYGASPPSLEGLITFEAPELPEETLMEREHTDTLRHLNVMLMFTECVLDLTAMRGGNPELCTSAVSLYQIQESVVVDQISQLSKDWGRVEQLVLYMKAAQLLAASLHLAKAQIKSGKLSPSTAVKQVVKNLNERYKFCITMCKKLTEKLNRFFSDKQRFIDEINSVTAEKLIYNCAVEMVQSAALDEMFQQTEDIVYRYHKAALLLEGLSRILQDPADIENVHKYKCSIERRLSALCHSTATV
The series is described as above. Format: biochemical. As to conditions: NA = no activity. Here is the method: as §1, §2, §3, §4, §5, §6, §7, §8, §9, §10, §11, §12, §13, §14, §15, §16, §17, §18, §19, §20, §21

For orientation: IC50 means the concentration that inhibits the measured activity by half. Read a low IC50 as higher potency. Regarding `Cc1cnc(Nc2ccc(C3CCN(C)CC3)c(F)c2)nc1Nc1ccc(Cl)c(NS(=O)(=O)C(C)(C)C)c1` [MA9060], the “toxicity to normal primary human MSCs” value in series [1] is reported as “not toxic”. In addition, the IC50 was determined as 1.71 µM against ULK1 and 4300 nM against ULK2.

Source of the values: article PMC12363935, “Unc-51 Like Kinase 3 (ULK3) is essential for autophagy and cell survival in multiple myeloma” (Research Square, 2025).
